Tests used:
Type in all cases: in vivo
[1] = system: Echinochloa oryzacola Vasing.; experiment: Test Example 2: herbicidal activity, application during weed generation in submerged conditions; details: Eighteenth Table; application herbicide amount 320 g/ha
Outline: (§1)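 Post-emergence application under submerged conditions: water-diluted emulsion dosed onto the water surface (g/ha) when weeds reach one- to two-leaf stage. Soil flooded to 4 cm; greenhouse 25–30 °C. Herbicidal ratio graded in six classes, 0 (≤5%) to 5 (≥90%), at three weeks.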

Monochoria vaginalis = experiment: as above; details: Eighteenth Table; application herbicide amount 320 g/ha
Outline: as §1

Scirpus juncoides = experiment: as above; details: Eighteenth Table; application herbicide amount 320 g/ha
Outline: as §1

Zea mays = experiment: Test Example 4: effect on crop by application to foliage (diluvial soil, plastic box); details: for b (Zea mays) effect on crop: application to foliage, application herbicide amount 320 g/ha; for b: Application herbicide amount 320 g/ha, effect on crop
Outline: (§2)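 Emulsion-formulated compound, diluted to a predetermined g/ha dose, applied by small sprayer to leaves and stems of 14-day-old seedlings grown in sterilized diluvial soil. Effect rated on 0–5 herbicidal-ratio scale three weeks on.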

Glycine max = experiment: as above; details: for c (Glycine max) effect on crop: application to foliage, application herbicide amount 320 g/ha; for c: Application herbicide amount 320 g/ha, effect on crop
Outline: as §2

Triticum aestivum = experiment: as above; details: for e (Triticum aestivum) effect on crop: application to foliage, application herbicide amount 320 g/ha; for e: Application herbicide amount 320 g/ha, effect on crop
Outline: as §2

[2] = system: directly sowed Oryza sativa; experiment: as above; details: for d (directly sowed Oryza sativa) effect on crop: application to foliage, application herbicide amount 320 g/ha; for d: Application herbicide amount 320 g/ha, effect on crop
Outline: as §2

[3] = system: Beta vulgaris ssp. vulgaris; experiment: as above; details: for f (Beta vulgaris ssp. vulgaris) effect on crop: application to foliage, application herbicide amount 320 g/ha; for f: Application herbicide amount 320 g/ha, effect on crop
Outline: as §2

Brassica campestris L. = experiment: as above; details: for g (Brassica campestris L.) effect on crop: application to foliage, application herbicide amount 320 g/ha; for g: Application herbicide amount 320 g/ha, effect on crop
Outline: as §2

Veronica persica = experiment: Test Example 4: herbicidal effect by application to foliage (diluvial soil, plastic box); details: for R (Veronica persica) herbicidal effect: application to foliage, application herbicide amount 320 g/ha; for R: Application herbicide amount 320 g/ha
Outline: as §2

Abutilon theophrasti = experiment: as above; details: for M (Abutilon theophrasti) herbicidal effect: application to foliage, application herbicide amount 320 g/ha; for M: Application herbicide amount 320 g/ha
Outline: as §2

Alopecurus myosuroides = experiment: as above; details: for J (Alopecurus myosuroides) herbicidal effect: application to foliage, application herbicide amount 320 g/ha; for J: Application herbicide amount 320 g/ha
Outline: as §2

Chenopodium album = experiment: as above; details: for O (Chenopodium album) herbicidal effect: application to foliage, application herbicide amount 320 g/ha; for O: Application herbicide amount 320 g/ha
Outline: as §2

Apera spica-venti. = experiment: as above; details: for L (Apera spica-venti.) herbicidal effect: application to foliage, application herbicide amount 320 g/ha; for L: Application herbicide amount 320 g/ha
Outline: as §2

Galium spurium = experiment: as above; details: for Q (Galium spurium) herbicidal effect: application to foliage, application herbicide amount 320 g/ha; for Q: Application herbicide amount 320 g/ha
Outline: as §2

[4] = system: Echinochloa crus-galli var. crus-galli; experiment: as above; details: for H (Echinochloa crus-galli var. crus-galli) herbicidal effect: application to foliage, application herbicide amount 320 g/ha; for H: Application herbicide amount 320 g/ha
Outline: as §2

Avena fatua = experiment: as above; details: for I (Avena fatua) herbicidal effect: application to foliage, application herbicide amount 320 g/ha; for I: Application herbicide amount 320 g/ha
Outline: as §2

Setaria viridis = experiment: as above; details: for G (Setaria viridis) herbicidal effect: application to foliage, application herbicide amount 320 g/ha; for G: Application herbicide amount 320 g/ha
Outline: as §2

Digitaria ciliaris = experiment: as above; details: for F (Digitaria ciliaris) herbicidal effect: application to foliage, application herbicide amount 320 g/ha; for F: Application herbicide amount 320 g/ha
Outline: as §2

Lolium multiflorum Lam. = experiment: as above; details: for K (Lolium multiflorum Lam.) herbicidal effect: application to foliage, application herbicide amount 320 g/ha; for K: Application herbicide amount 320 g/ha
Outline: as §2

| SMILES | A (Echinochloa oryzicola Vasing.) herbicidal ratio grade [1] | C (Monochoria vaginalis) herbicidal ratio grade (Monochoria vaginalis) | B (Scirpus juncoides) herbicidal ratio grade (Scirpus juncoides) | b (Zea mays) effect on crop (Zea mays) | c (Glycine max) effect on crop (Glycine max) | e (Triticum aestivum) effect on crop (Triticum aestivum) | d (directly sowed Oryza sativa) effect on crop [2] | f (Beta vulgaris ssp. vulgaris) effect on crop [3] | g (Brassica campestris L.) effect on crop (Brassica campestris L.) | R (Veronica persica) herbicidal effect (Veronica persica) | M (Abutilon theophrasti) herbicidal effect (Abutilon theophrasti) | J (Alopecurus myosuroides) herbicidal effect (Alopecurus myosuroides) | O (Chenopodium album) herbicidal effect (Chenopodium album) | L (Apera spica-venti.) herbicidal effect (Apera spica-venti.) | Q (Galium spurium) herbicidal effect (Galium spurium) | H (Echinochloa crus-galli var. crus-galli) herbicidal effect [4] | I (Avena fatua) herbicidal effect (Avena fatua) | G (Setaria viridis) herbicidal effect (Setaria viridis) | F (Digitaria ciliaris) herbicidal effect (Digitaria ciliaris) | K (Lolium multiflorum Lam.) herbicidal effect (Lolium multiflorum Lam.) | also measured |
| --- | --- | --- | --- | --- | --- | --- | --- | --- | --- | --- | --- | --- | --- | --- | --- | --- | --- | --- | --- | --- | --- |
| CCC(CC)c1nnc2c(C(=O)Nc3nnc(C)o3)ccc(C(F)(F)F)n12 [1-011] | 5 (Herbicidal ratio of 90% or more (almost completely withered)) | 3 (Herbicidal ratio of 40% or more and less than 70%) | 3 (Herbicidal ratio of 40% or more and less than 70%) | 0 (Herbicidal ratio of 5% or less (almost no effect)) | 3 (Herbicidal ratio of 40% or more and less than 70%) | 0 (Herbicidal ratio of 5% or less (almost no effect)) | 4 (Herbicidal ratio of 70% or more and less than 90%) | 5 (Herbicidal ratio of 90% or more (almost completely withered)) | 3 (Herbicidal ratio of 40% or more and less than 70%) | 5 (Herbicidal ratio of 90% or more (almost completely withered)) | 5 (Herbicidal ratio of 90% or more (almost completely withered)) | 1 (Herbicidal ratio of 5% or more and less than 20%) | 5 (Herbicidal ratio of 90% or more (almost completely withered)) | 2 (Herbicidal ratio of 20% or more and less than 40%) | 2 (Herbicidal ratio of 20% or more and less than 40%) | 5 (Herbicidal ratio of 90% or more (almost completely withered)) | 1 (Herbicidal ratio of 5% or more and less than 20%) | 4 (Herbicidal ratio of 70% or more and less than 90%) | 5 (Herbicidal ratio of 90% or more (almost completely withered)) | 1 (Herbicidal ratio of 5% or more and less than 20%) |  |
| Cc1nnc(NC(=O)c2ccc(C(F)(F)F)n3c(CC(=O)OC(C)C)nnc23)o1 [1-049] | 4 (Herbicidal ratio of 70% or more and less than 90%) | 2 (Herbicidal ratio of 20% or more and less than 40%) | 2 (Herbicidal ratio of 20% or more and less than 40%) | 0 (Herbicidal ratio of 5% or less (almost no effect)) | 4 (Herbicidal ratio of 70% or more and less than 90%) | 1 (Herbicidal ratio of 5% or more and less than 20%) | 3 (Herbicidal ratio of 40% or more and less than 70%) | 5 (Herbicidal ratio of 90% or more (almost completely withered)) | 4 (Herbicidal ratio of 70% or more and less than 90%) | 4 (Herbicidal ratio of 70% or more and less than 90%) | 5 (Herbicidal ratio of 90% or more (almost completely withered)) | 2 (Herbicidal ratio of 20% or more and less than 40%) | 5 (Herbicidal ratio of 90% or more (almost completely withered)) | 3 (Herbicidal ratio of 40% or more and less than 70%) | 3 (Herbicidal ratio of 40% or more and less than 70%) | 5 (Herbicidal ratio of 90% or more (almost completely withered)) | 0 (Herbicidal ratio of 5% or less (almost no effect)) | 4 (Herbicidal ratio of 70% or more and less than 90%) | 5 (Herbicidal ratio of 90% or more (almost completely withered)) | 2 (Herbicidal ratio of 20% or more and less than 40%) |  |
| Cc1nnc(NC(=O)c2ccc(C(F)(F)F)n3c(N(C)C)nnc23)o1 [1-076] | 2 (Herbicidal ratio of 20% or more and less than 40%) | 4 (Herbicidal ratio of 70% or more and less than 90%) | 0 (Herbicidal ratio of 5% or less (almost no effect)) |  |  |  |  |  |  |  |  |  |  |  |  |  |  |  |  |  | b (Zea mays): 0 (Herbicidal ratio of 5% or less (almost no effect)); c (Glycine max): 3 (Herbicidal ratio of 40% or more and less than 70%); e (Triticum aestivum): 3 (Herbicidal ratio of 40% or more and less than 70%); d [2]: 3 (Herbicidal ratio of 40% or more and less than 70%); f [3]: 5 (Herbicidal ratio of 90% or more (almost completely withered)); g (Brassica campestris L.): 4 (Herbicidal ratio of 70% or more and less than 90%); R (Veronica persica): 4 (Herbicidal ratio of 70% or more and less than 90%); M (Abutilon theophrasti): 4 (Herbicidal ratio of 70% or more and less than 90%); J (Alopecurus myosuroides): 3 (Herbicidal ratio of 40% or more and less than 70%); O (Chenopodium album): 5 (Herbicidal ratio of 90% or more (almost completely withered)); L (Apera spica-venti.): 4 (Herbicidal ratio of 70% or more and less than 90%); Q (Galium spurium): 2 (Herbicidal ratio of 20% or more and less than 40%); H [4]: 5 (Herbicidal ratio of 90% or more (almost completely withered)); I (Avena fatua): 3 (Herbicidal ratio of 40% or more and less than 70%); G (Setaria viridis): 5 (Herbicidal ratio of 90% or more (almost completely withered)); F (Digitaria ciliaris): 5 (Herbicidal ratio of 90% or more (almost completely withered)); K (Lolium multiflorum Lam.): 3 (Herbicidal ratio of 40% or more and less than 70%) |
| Cc1nnc(NC(=O)c2ccc(C(F)(F)F)n3c(-c4cc(Cl)cc(Cl)c4)nnc23)o1 [1-071] | 3 (Herbicidal ratio of 40% or more and less than 70%) | 4 (Herbicidal ratio of 70% or more and less than 90%) | 5 (Herbicidal ratio of 90% or more (almost completely withered)) |  |  |  |  |  |  |  |  |  |  |  |  |  |  |  |  |  | b (Zea mays): 0 (Herbicidal ratio of 5% or less (almost no effect)); c (Glycine max): 0 (Herbicidal ratio of 5% or less (almost no effect)); e (Triticum aestivum): 0 (Herbicidal ratio of 5% or less (almost no effect)); d [2]: 0 (Herbicidal ratio of 5% or less (almost no effect)); f [3]: 2 (Herbicidal ratio of 20% or more and less than 40%); g (Brassica campestris L.): 0 (Herbicidal ratio of 5% or less (almost no effect)); R (Veronica persica): 3 (Herbicidal ratio of 40% or more and less than 70%); M (Abutilon theophrasti): 3 (Herbicidal ratio of 40% or more and less than 70%); J (Alopecurus myosuroides): 0 (Herbicidal ratio of 5% or less (almost no effect)); O (Chenopodium album): 5 (Herbicidal ratio of 90% or more (almost completely withered)); L (Apera spica-venti.): 0 (Herbicidal ratio of 5% or less (almost no effect)); Q (Galium spurium): 1 (Herbicidal ratio of 5% or more and less than 20%); H [4]: 0 (Herbicidal ratio of 5% or less (almost no effect)); I (Avena fatua): 0 (Herbicidal ratio of 5% or less (almost no effect)); G (Setaria viridis): 0 (Herbicidal ratio of 5% or less (almost no effect)); F (Digitaria ciliaris): 1 (Herbicidal ratio of 5% or more and less than 20%); K (Lolium multiflorum Lam.): 0 (Herbicidal ratio of 5% or less (almost no effect)) |
| CCc1nnc(NC(=O)c2ccc(C(F)(F)F)n3c(C(C)C)nnc23)o1 [1-005] | 5 (Herbicidal ratio of 90% or more (almost completely withered)) | 0 (Herbicidal ratio of 5% or less (almost no effect)) | 1 (Herbicidal ratio of 5% or more and less than 20%) | 0 (Herbicidal ratio of 5% or less (almost no effect)) | 1 (Herbicidal ratio of 5% or more and less than 20%) | 0 (Herbicidal ratio of 5% or less (almost no effect)) | 0 (Herbicidal ratio of 5% or less (almost no effect)) | 0 (Herbicidal ratio of 5% or less (almost no effect)) | 0 (Herbicidal ratio of 5% or less (almost no effect)) | 3 (Herbicidal ratio of 40% or more and less than 70%) | 4 (Herbicidal ratio of 70% or more and less than 90%) | 0 (Herbicidal ratio of 5% or less (almost no effect)) | 5 (Herbicidal ratio of 90% or more (almost completely withered)) | 0 (Herbicidal ratio of 5% or less (almost no effect)) | 0 (Herbicidal ratio of 5% or less (almost no effect)) | 4 (Herbicidal ratio of 70% or more and less than 90%) | 1 (Herbicidal ratio of 5% or more and less than 20%) | 3 (Herbicidal ratio of 40% or more and less than 70%) | 3 (Herbicidal ratio of 40% or more and less than 70%) | 0 (Herbicidal ratio of 5% or less (almost no effect)) |  |

— patent US9708314B2, “Heterocyclic amide compound” (NISSAN CHEMICAL INDUSTRIES, LTD., priority 2013, dated 2017)
